In publication PMC12107143, “MALT1 inhibitor MI-2 induces ferroptosis by direct targeting of GPX4” (Proceedings of the National Academy of Sciences of the …, 2025):

Target: T1, MALT1 (Homo sapiens, UniProt Q9UDY8)
T1 construct: GST-MALT1 (aa 325–760)
T1 sequence (Q9UDY8 325-760): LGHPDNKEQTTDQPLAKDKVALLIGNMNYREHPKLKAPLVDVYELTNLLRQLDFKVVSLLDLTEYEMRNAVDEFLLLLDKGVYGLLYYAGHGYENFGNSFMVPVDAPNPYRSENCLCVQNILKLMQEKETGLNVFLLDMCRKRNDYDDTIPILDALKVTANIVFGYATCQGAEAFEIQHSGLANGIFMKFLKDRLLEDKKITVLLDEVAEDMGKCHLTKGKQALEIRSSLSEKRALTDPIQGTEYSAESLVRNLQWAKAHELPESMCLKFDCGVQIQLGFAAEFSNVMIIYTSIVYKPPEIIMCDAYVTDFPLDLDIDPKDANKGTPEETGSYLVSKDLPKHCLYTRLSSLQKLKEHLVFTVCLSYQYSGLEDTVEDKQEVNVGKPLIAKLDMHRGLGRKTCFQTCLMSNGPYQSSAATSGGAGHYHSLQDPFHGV
Assay: recombinant GST-MALT1 protease assay with fluorescence substrate Ac-LRSR-AMC
Format: biochemical

Compound: COCCOc1nc(-c2ccc(Cl)c(Cl)c2)n(-c2ccc(NC(=O)CCl)cc2)n1 [MI-2]
- IC50: 2.1 µM
